Results from PMC7932080, “In vitro study of Hesperetin and Hesperidin as inhibitors of zika and chikungunya virus proteases” (PLoS ONE, 2021).
Values joined by “and” are separate entries in the source; they are usually repeats but may differ in a detail not shown here. Identical values can stand only once. Like-named read-outs stand apart in the source and are kept apart here.

Tests used:
[1] = molecular target: T1, ZIKV NS2B/NS3^pro (Zika virus, UniProt A0A024B7W1); design: method as in PMID 28700665; conditions: cited from earlier work
[2] = test system: CHIKV; conditions: cited from earlier work
[3] = molecular target: T2, CHIKV nsP2^pro (Chikungunya virus, UniProt Q8JUX6); experiment: Intrinsic Trp fluorescence titration (KD); conditions: Trp fluorescence quenching, ± STD
[4] = cited from earlier work
[5] = test system: trypsin; design: method as in PMID 23124490; conditions: cited from earlier work
[6] = test system: CHIKV; experiment: Plaque reduction antiviral assay in Vero cells; conditions: ~50 PFU, two inhibitor concentrations
[7] = molecular target: T1, ZIKV NS2B/NS3^pro; experiment: ZIKV NS2B/NS3^pro inhibition assay, fluorogenic substrate Pyr-Arg-Thr-Lys-Arg-AMC; conditions: compound 20 µM
[8] = molecular target: T2, CHIKV nsP2^pro; experiment: Thermal unfolding by fluorescence spectroscopy; conditions: 10 µM protease, 75 µM ligand
[9] = test system: Vero cells; experiment: Cell viability through MTT assay
[10] = molecular target: T2, CHIKV nsP2^pro; experiment: CHIKV nsP2^pro FRET-based inhibition assay; type: biochemical; conditions: for % activity, mean / % inhibition, mean: mean n=3
[11] = cited from earlier work; remark: listed apart in the source
[12] = dose of administration 20 mg/kg, cited from earlier work
[13] = molecular target: T2, CHIKV nsP2^pro; design: method as in PMID 32791353; conditions: cited from earlier work

T1 sequence (A0A024B7W1 1425-1464): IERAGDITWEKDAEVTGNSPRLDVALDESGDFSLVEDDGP
T1 sequence (A0A024B7W1 1503-1680): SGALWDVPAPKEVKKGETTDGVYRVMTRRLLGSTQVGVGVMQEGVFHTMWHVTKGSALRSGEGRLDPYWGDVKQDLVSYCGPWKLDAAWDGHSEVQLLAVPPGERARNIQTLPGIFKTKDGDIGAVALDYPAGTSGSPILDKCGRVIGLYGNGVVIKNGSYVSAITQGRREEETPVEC
T2 sequence (Q8JUX6 1001-1333): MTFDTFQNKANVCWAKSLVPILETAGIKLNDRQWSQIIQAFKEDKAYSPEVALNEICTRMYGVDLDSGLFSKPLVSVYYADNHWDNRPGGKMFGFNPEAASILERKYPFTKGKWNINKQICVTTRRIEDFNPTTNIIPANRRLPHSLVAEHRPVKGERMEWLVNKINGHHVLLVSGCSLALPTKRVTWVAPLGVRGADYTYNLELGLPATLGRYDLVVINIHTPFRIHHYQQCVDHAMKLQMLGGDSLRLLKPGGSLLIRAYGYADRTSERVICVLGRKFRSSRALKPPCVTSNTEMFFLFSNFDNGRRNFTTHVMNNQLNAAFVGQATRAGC

In the case of `O=c1cc(-c2ccc(O)cc2)oc2cc(O)cc(O)c12` [Apigenin], the IC50 [1] is given as 56.3 ± 0.9 µM and the Inhibition mode [1] is given as “noncompetitive”.
For `COc1cc(/C=C/C(=O)CC(=O)/C=C/c2ccc(O)c(OC)c2)ccc1O` [Curcumin], the Inhibition mode [1] is given as “noncompetitive”.
In the case of `COc1ccc([C@@H]2CC(=O)c3c(O)cc(O[C@@H]4O[C@H](CO[C@@H]5O[C@@H](C)[C@H](O)[C@@H](O)[C@H]5O)[C@@H](O)[C@H](O)[C@H]4O)cc3O2)cc1O` [HSD, 3’,5,7-trihydroxy-4’-methoxy-flavanone-7-rhamnoglucoside], the “Intracellular replication of CHIKV” value [2] is given as “inhibit”, the Kd [3] is given as 40.7 ± 2 µM and the “Potential maximal tolerated dose” value [4] is given as “Citrus flavonoids are extremely safe and without side effects also up to high concentrations of 100 mg/kg to 500 mg/kg”. For the same molecule, the IC50 [5] was 127 µM, the “Antiviral activity, plaque reduction” value [6] was “no antiviral activities” and the “Inhibition of protease activity, preliminary inhibition test” value [7] was “not relevant inhibition”. The “Melting temperature (Tm) of protease-ligand complex” value [8] was 52 °C, the ΔTm [8] was 5 °C and the “Cytotoxic effect at the calculated IC50 concentrations” value ([9]; 2.3 to 300 µM, 2 days) was “no cytotoxic effect”. The 50% cytotoxic concentration ([9]; 48 h, concentrations up to 300 µM) was > 300 µM, the IC50 ([10]; 1 µM protease, 3 µM substrate, mean ± SD, n=3) was < 10000 nM and the “LE (ligand efficiency)” value ([10]; (1.4*pIC50)/N) was 0.17. The “% activity, mean” value ([10]; HSD 0.25 (µM)) was 97.3333%, the “% inhibition, mean” value ([10]; HSD 0.25 (µM)) was 2.667% and the “% activity, mean” value ([10]; HSD 0.5 (µM)) was 90.3333%. The “% inhibition, mean” value ([10]; HSD 0.5 (µM)) was 9.667%, the inhibition at 0.5 µM ([10]; HSD 0.5 (µM), replicates A-C) was 11% and the “% activity, mean” value ([10]; HSD 1 (µM)) was 82%. For the same molecule, the “% inhibition, mean” value ([10]; HSD 1 (µM)) was 18%, the “% activity” value ([10]; HSD 1 (µM), replicates A-C) was 84% and the “% inhibition” value ([10]; HSD 1 (µM), replicates A-C) was 16%. For the same molecule, the inhibition at 1 µM ([10]; HSD 1 (µM), replicates A-C) was 22%, the “% activity, mean” value ([10]; HSD 2.5 (µM)) was 72.3333% and the “% inhibition, mean” value ([10]; HSD 2.5 (µM)) was 27.6667%. For the same molecule, the inhibition at 2.5 µM ([10]; HSD 2.5 (µM), replicates A-C) was 33%, the “% activity, mean” value ([10]; HSD 5 (µM)) was 54.6667% and the “% inhibition, mean” value ([10]; HSD 5 (µM)) was 45.3333%. The inhibition at 5 µM ([10]; HSD 5 (µM), replicates A-C) was 49%, the “% activity, mean” value ([10]; HSD 10 (µM)) was 39.6667% and the “% inhibition, mean” value ([10]; HSD 10 (µM)) was 60.3333%. For the same molecule, the inhibition at 10 µM ([10]; HSD 10 (µM), replicates A-C) was 62%, the “% activity, mean” value ([10]; HSD 15 (µM)) was 28.6667% and the “% inhibition, mean” value ([10]; HSD 15 (µM)) was 71.3333%. The “% activity” value ([10]; HSD 15 (µM), replicates A-C) was 30%, the “% inhibition” value ([10]; HSD 15 (µM), replicates A-C) was 70% and the inhibition at 15 µM ([10]; HSD 15 (µM), replicates A-C) was 74%. The “% activity, mean” value ([10]; HSD 20 (µM)) was 21%, the “% inhibition, mean” value ([10]; HSD 20 (µM)) was 79% and the inhibition at 20 µM ([10]; HSD 20 (µM), replicates A-C) was 82%. For the same molecule, the “% activity, mean” value ([10]; HSD 25 (µM)) was 10.3333%, the “% inhibition, mean” value ([10]; HSD 25 (µM)) was 89.6667% and the inhibition at 25 µM ([10]; HSD 25 (µM), replicates A-C) was 93%. The “% activity, mean” value ([10]; HSD 30 (µM)) was 6%, the “% inhibition, mean” value ([10]; HSD 30 (µM)) was 94% and the inhibition at 30 µM ([10]; HSD 30 (µM), replicates A-C) was 97%. The “% activity, mean” value ([10]; HSD 35 (µM)) was 3%, the inhibition at 35 µM ([10]; HSD 35 (µM), replicates A-C) was 99% and the “% activity, mean” value ([10]; HSD 40 (µM)) was 0.4%. The “% inhibition, mean” value ([10]; HSD 40 (µM)) was 99.6%, the inhibition at 40 µM ([10]; HSD 40 (µM), replicates A-C) was 99.7% and the inhibition at 45 µM ([10]; HSD 45 (µM), replicates A-C) was 100%. The IC50 ([10]; IC50, 1 µM protease, 3 µM substrate, mean ± SD, n=3) was 7100 ± 1100 nM, the IC50 ([10]; IC50, single replicate, HSD, single replicates A, B, C) was 8.32 µM (2×) and 5.62 µM (2×) and 7.24 µM (2×) and the Inhibition mode ([10]; Lineweaver-Burk plot) was “noncompetitive”. For the same molecule, the IC50 ([10]; Log conc nM (IC50 determination triplicate), HSD, single replicates A, B, C) was 8320 nM and 5620 nM and 7240 nM, the IC50 ([10]; pIC50, from IC50 by online tool) was 6310 nM and the remaining activity at 0.25 µM ([10]; read-out: % activity, HSD 0.25 (µM), replicates A-C) was 95%. It also gave a remaining activity at 0.5 µM ([10]; read-out: % activity, HSD 0.5 (µM), replicates A-C) of 89%, a remaining activity at 1 µM ([10]; read-out: % activity, HSD 1 (µM), replicates A-C) of 78% and a remaining activity at 2.5 µM ([10]; read-out: % activity, HSD 2.5 (µM), replicates A-C) of 67%. For the same molecule, the remaining activity at 5 µM ([10]; read-out: % activity, HSD 5 (µM), replicates A-C) was 51%, the remaining activity at 10 µM ([10]; read-out: % activity, HSD 10 (µM), replicates A-C) was 38% and the remaining activity at 15 µM ([10]; read-out: % activity, HSD 15 (µM), replicates A-C) was 26%. For the same molecule, the remaining activity at 20 µM ([10]; read-out: % activity, HSD 20 (µM), replicates A-C) was 18%, the remaining activity at 25 µM ([10]; read-out: % activity, HSD 25 (µM), replicates A-C) was 7% and the remaining activity at 45 µM ([10]; read-out: % activity, HSD 45 (µM), replicates A-C) was 0%. The inhibition at 20 µM ([10]; read-out: Inhibition of protease activity, preliminary inhibition test, compound 20 µM) was > 60%, the Bioavailability [11] was “limited bioavailability” and the AUC inf. [12] was 4.92 ± 0.38 µM·h. The AUC last [12] was 4.12 ± 0.26 µM·h, the Cl systemic clearance [12] was 112 ± 9.67 mL/min/kg and the “MRT mean residence time” value [12] was 4.22 ± 0.67 h. The T1/2 elimination half-life [12] was 6.74 ± 0.79 h, the “Vd volume of distribution” value [12] was 64.58 ± 3.70 L/kg and the C0 ([12]; read-out: Co initial concentration) was 7.47 ± 1.64 µM.
For `COc1cc(-c2oc3cc(O)cc(O)c3c(=O)c2O)ccc1O` [Isorhamnetin], the IC50 [1] is listed as 15.5 ± 0.7 µM and the Inhibition mode [1] is listed as “noncompetitive”.
In the case of `O=c1cc(-c2ccc(O)c(O)c2)oc2cc(O)cc(O)c12` [Luteolin], the Inhibition mode [1] is listed as “noncompetitive”.
For `O=c1c(O)c(-c2cc(O)c(O)c(O)c2)oc2cc(O)cc(O)c12` [Myricetin], the IC50 [1] is listed as 1.3 ± 0.1 µM and the Inhibition mode [1] is listed as “noncompetitive”.
In the case of `CO[C@@H]1[C@@H](OC(N)=O)[C@@H](O)[C@H](Oc2ccc3c(O)c(NC(=O)c4ccc(O)c(CC=C(C)C)c4)c(=O)oc3c2C)OC1(C)C` [Novobiocin], the IC50 [13] is given as 2 µM.
For `O=c1c(O)c(-c2ccc(O)c(O)c2)oc2cc(O)cc(O)c12` [Quercetin], the IC50 [1] is given as 2.4 ± 0.2 µM and the Inhibition mode [1] is given as “noncompetitive”.
In the case of `CCCc1nc2c(C)cc(-c3nc4ccccc4n3C)cc2n1Cc1ccc(-c2ccccc2C(=O)O)cc1` [Telmisartan], the IC50 [13] is given as 5 µM.
